# Measured values taken from patent US8183252B2, “Heterocyclic aspartyl protease inhibitors” (Schering Corporation, priority 2007, dated 2012).
# Read-outs that look alike come from different tables or passages of the source.
# Target: T1, human BACE1 (sproBACE1) (Homo sapiens, UniProt P56817)
# T1 construct: sBACE1, corresponding to amino acids 1-454; made in house; host or cells: Sf9 insect cells (baculovirus), secreted into the medium
# Assay: BACE-1 Peptide Hydrolysis Assay (HTRF)
# Assay type: biochemical
# Description: A HindIII/PmeI fragment from pCDNA4-sBACE1myc/His was blunt ended using Klenow and subcloned into the Stu I site of PFASTBACI(A) (Invitrogen). A sBACE1mycHis recombinant bacmid was generated by transposition in DH10Bac cells (GIBCO/BRL). Subsequently, the sBACE1mycHis bacmid construct was transfected into sf9 cells using CellFectin (Invitrogen, San Diego, Calif.) in order to generate recombinant baculovirus. […] Five milliliters of high titer plaque purified sBACEmyc/His virus was used to infect 1 L of logarithmically growing sf9 cells for 72 hours. Intact cells were pelleted by centrifugation at 3000×g for 15 minutes. The supernatant, containing secreted sBACE1, was collected and diluted 50% v/v with 100 mM HEPES, pH 8.0. The diluted medium was loaded onto a Q-sepharose column. The Q-sepharose column was washed with Buffer A (20 mM HEPES, pH 8.0, 50 mM NaCl).
# Proteins, were eluted from the Q-sepharose column with Buffer B (20 mM HEPES, pH 8.0, 500 mM NaCl). The protein peaks from the Q-sepharose column were pooled and loaded onto a Ni-NTA agarose column. The Ni-NTA column was then washed with Buffer C (20 mM HEPES, pH 8.0, 500 mM NaCl). Bound proteins were then eluted with Buffer D (Buffer C+250 mM imidazole).
# Reactions were initiated by addition of substrate in a 5 μl aliquot resulting in a total volume of 25 μl. After 3 hr at 30° C. reactions were terminated by addition of an equal volume of 2× stop buffer containing 50 mM Tris-HCl pH 8.0, 0.5 M KF, 0.001% Brij-35, 20 μg/ml SA-XL665 (cross-linked allophycocyanin protein coupled to streptavidin; CIS-Bio International, France) (0.5 μg/well). Plates were shaken briefly and spun at 1200×g for 10 seconds to pellet all liquid to the bottom of the plate before the incubation.
# Y=Bottom+(Top-Bottom)/(1+10^((LogEC50−X)*Hill Slope)); X is the logarithm of concentration of I, Y is the percent change in ratio and Y starts at bottom and goes to top with a sigmoid shape.
# T1 sequence (P56817 22-454): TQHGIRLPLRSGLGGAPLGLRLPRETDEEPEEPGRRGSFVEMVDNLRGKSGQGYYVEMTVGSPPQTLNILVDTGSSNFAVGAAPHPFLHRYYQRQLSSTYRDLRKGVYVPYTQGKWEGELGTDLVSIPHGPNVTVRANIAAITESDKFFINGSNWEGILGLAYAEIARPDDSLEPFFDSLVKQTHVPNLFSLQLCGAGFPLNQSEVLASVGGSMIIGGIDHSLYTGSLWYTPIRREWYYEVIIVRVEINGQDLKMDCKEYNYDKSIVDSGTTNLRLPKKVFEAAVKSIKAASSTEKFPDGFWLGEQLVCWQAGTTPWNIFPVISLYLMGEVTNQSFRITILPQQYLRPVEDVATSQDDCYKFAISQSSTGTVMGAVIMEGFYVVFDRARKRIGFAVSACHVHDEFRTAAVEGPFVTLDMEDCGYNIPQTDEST
smiles,measurement,setting,value
COc1ccc(Cl)c(-c2cc([C@]3(C)CC(=O)N(C)C(=N)N3)cc3ccsc23)c1,Ki,read-out: BACE-1 Ki,< 5 µM
CN1C(=N)NC(C)(c2cccc(-c3cc(Cl)ccc3CCOC=O)c2)C1=O (stereo not shown),Ki,read-out: BACE-1 Ki,< 5 µM
COc1ccc(F)c(-c2cccc(C3(C)CON(C)C(=N)N3)c2)c1 (stereo not shown),Ki,read-out: BACE-1 Ki,< 5 µM
CN1C(=N)NC(c2cccc(-n3ccnc3)c2)(C2CC2)C1=O (stereo not shown) [5-CYCLOPROPYL-5-[3-(1H-IMIDAZOL-1-YL)PHENYL]-2-IMINO-3-METHYL-4-IMIDAZOLIDINONE],Ki,read-out: BACE-1 Ki,< 5 µM
COCC1CCCN1C(=O)c1cccc(CN2C(=N)NC(C)(c3ccccc3)C2=O)c1 (stereo not shown),Ki,read-out: BACE-1 Ki,< 5 µM
COCC1CCCN1C(=O)c1cccc(CN2C(=N)NC(C)(c3cccc(-c4cccc(Cl)c4)c3)C2=O)c1 (stereo not shown),Ki,read-out: BACE-1 Ki,< 5 µM
COc1cncc(-c2cccc(C3(C)NC(=N)N(CC4CC(=O)N(Cc5ccccc5)C4)C3=O)c2)c1 (stereo not shown),Ki,read-out: BACE-1 Ki,< 5 µM
CN1C(=N)N[C@](C)(c2ccc3c(Br)n[nH]c3c2)CC1=O,Ki,read-out: BACE-1 Ki,< 5 µM
CC(C)CC(=O)Nc1cccc(CN2C(=N)NC(c3ccccc3)(c3ccccc3)C2=O)c1,Ki,read-out: BACE-1 Ki,< 5 µM
CC[C@H]1C(=O)N(C)C(=N)N[C@]1(C)c1cccc(-c2cccc(OC)c2)c1,Ki,read-out: BACE-1 Ki,< 5 µM
"N=C1NC(c2ccccc2)(c2ccccc2)C(=O)N1Cc1cccc(NC(=O)c2ccccc2)c1 [BENZAMIDE, N-[3-[(2-IMINO-5-OXO-4,4-DIPHENYL-1-IMIDAZOLIDINYL)METHYL]PHENYL]-]",Ki,read-out: BACE-1 Ki,< 5 µM
N=C1NC(c2ccccc2)(c2cccc(-c3cccnc3)c2)C(=O)N1CC1CCNCC1 (stereo not shown),Ki,read-out: BACE-1 Ki,< 5 µM
CN1C(=N)N[C@](CCC2CCCCC2)(C[C@H]2CCC[C@@H](NC(=O)c3ccccn3)C2)C1=O,Ki,read-out: BACE-1 Ki,< 5 µM
CN1C(=N)NC(c2csc(-c3cccc(C#N)c3)c2)(C2CC2)C1=O (stereo not shown),Ki,read-out: BACE-1 Ki,< 5 µM
CC(C)Oc1cccc([C@H]2C(=O)N(C)C(=N)N[C@]2(C)c2cc(-c3cccc(C#N)c3)cs2)c1,Ki,read-out: BACE-1 Ki,< 5 µM
CCn1nccc1Nc1cccc(C2(c3ccccc3)NC(=N)N(C)C2=O)c1 (stereo not shown),Ki,read-out: BACE-1 Ki,< 5 µM
COc1cccc(-c2sc([C@]3(C)CC(=O)N(C)C(=N)N3)cc2C)c1,Ki,read-out: BACE-1 Ki,< 5 µM
CN1C(=N)N[C@](CCC2CCCCC2)(C[C@H]2CCC[C@@H](NC(=O)c3ccc4ccccc4n3)C2)C1=O,Ki,read-out: BACE-1 Ki,< 5 µM
"CS(=O)(=O)N1CCC(CN2C(=N)NC(c3ccccc3)(c3ccccc3)C2=O)CC1 [piperidine, 4-[(2-imino-5-oxo-4,4-diphenyl-1-imidazolidinyl)methyl]-1-(methylsulfonyl)-]",Ki,read-out: BACE-1 Ki,< 5 µM
CN1C(=N)NC(C)(c2cc(-c3cccc(C#N)c3)cs2)C(CCCc2ccccc2)(n2cccn2)C1=O (stereo not shown),Ki,read-out: BACE-1 Ki,< 5 µM
CN1C(=N)N[C@](C)(c2cc(C#N)cs2)[C@@H](c2ccc(C3CC3)cc2)C1=O,Ki,read-out: BACE-1 Ki,< 5 µM
CN1C(=N)N[C@](C)(c2ccc3scc(CCC4CC4)c3c2)CC1=O,Ki,read-out: BACE-1 Ki,< 5 µM
COc1ccc(CNc2ccccc2)c(-c2cccc(C3(C)NC(=N)N(CC4CCN(C(C)=O)CC4)C3=O)c2)c1 (stereo not shown),Ki,,< 5 µM
CN1C(=N)N[C@](C)(C[C@H]2CCC[C@@H](Nc3cnc4ccccc4n3)C2)C1=O,Ki,read-out: BACE-1 Ki,< 5 µM
"CCS(=O)(=O)N1CCC(CN2C(=N)NC(c3ccccc3)(c3ccccc3)C2=O)CC1 [piperidine, 1-(ethylsulfonyl)-4-[(2-imino-5-oxo-4,4-diphenyl-1-imidazolidinyl)methyl]-]",Ki,read-out: BACE-1 Ki,< 5 µM
CN1C(=N)NC(c2ccccc2)(c2cc(-c3ccc4c(c3)OCO4)cs2)C1=O (stereo not shown),Ki,read-out: BACE-1 Ki,< 5 µM
CN1C(=N)N[C@](CCC2CCCCC2)(C[C@H]2CCC[C@@H](NC(=O)c3cc(Cl)nc(Cl)c3)C2)C1=O,Ki,read-out: BACE-1 Ki,< 5 µM
"CN1C(=N)NC(C)(c2cccc(-c3cc(Cl)ccc3CNS(=O)(=O)c3ccccc3)c2)C1=O (stereo not shown) [benzenesulfonamide, N-[[5-chloro-3′-(2-imino-1,4-dimethyl-5-oxo-4-imidazolidinyl)[1,1′-biphenyl]-2-yl]methyl]-]",Ki,read-out: BACE-1 Ki,< 5 µM
CN1C(=N)NC(C)(c2cc(-c3ccc(F)c(C#N)c3)cs2)C(Br)C1=O (stereo not shown),Ki,read-out: BACE-1 Ki,< 5 µM
COc1cccc(-c2cccc(C3(C)NC(=N)N(Cc4cccc(N5CCCCS5(=O)=O)c4)C3=O)c2)c1 (racemic),Ki,read-out: BACE-1 Ki,< 5 µM
CN1C(=N)N[C@](C)(c2ccc(F)cc2F)[C@@H](c2ccc(N3CCCS3(=O)=O)cc2)C1=O,Ki,read-out: BACE-1 Ki,< 5 µM
Cc1cc([C@]2(C)CC(=O)N(C)C(=N)N2)sc1-c1cccc(OC(F)(F)F)c1,Ki,read-out: BACE-1 Ki,< 5 µM
N=C1NC(c2ccccc2)(c2ccccc2)C(=O)N1Cc1cccc(C(=O)N2CCOCC2)c1,Ki,read-out: BACE-1 Ki,< 5 µM
CN1C(=N)NC(C)(c2cccc(-c3cc(Cl)ccc3CCO)c2)C1=O (stereo not shown),Ki,read-out: BACE-1 Ki,< 5 µM
CCN1C(=N)N[C@](C)(c2cc(-c3cccc(C#N)c3)cs2)CC1=O,Ki,read-out: BACE-1 Ki,< 5 µM
CN1C(=N)NC(C)(c2cccc(-c3cc(Cl)ccc3CNC(=O)c3ccnnc3)c2)C1=O (stereo not shown),Ki,read-out: BACE-1 Ki,< 5 µM
CC(=O)N1CCC(CN2C(=N)NC(C)(c3cccc(-c4cn[nH]c4)c3)C2=O)CC1 (stereo not shown),Ki,,< 5 µM
CN1C(=N)N[C@](C)(c2cc(Br)c(-c3cncc(Br)c3)s2)CC1=O,Ki,read-out: BACE-1 Ki,< 5 µM
CN1C(=N)N[C@](C)(c2scc(C#N)c2Cl)CC1=O,Ki,read-out: BACE-1 Ki,< 5 µM
CN1C(=N)N[C@](C)(c2ccc(-c3cc(Cl)cc(C#N)c3)s2)[C@@H](C2CC2)C1=O,Ki,read-out: BACE-1 Ki,< 5 µM
CN1C(=N)N[C@](C)(c2ccc(-c3cccc(C(F)(F)F)c3)s2)[C@@H](C2CC2)C1=O,Ki,read-out: BACE-1 Ki,< 5 µM
CN1C(=N)N[C@](C)(c2ccnc(-c3cccnc3F)c2)[C@@H](c2ccc(C3CC3)cc2)C1=O,Ki,read-out: BACE-1 Ki,< 5 µM
N=C1NC(c2ccccc2)(c2ccccc2)C(=O)N1Cc1cccnc1,Ki,read-out: BACE-1 Ki,< 5 µM
CN1C(=N)NC(c2ccccc2)(c2cccc(-c3cc(Br)cc(OC(F)(F)F)c3)c2)C1=O (racemic),Ki,read-out: BACE-1 Ki,< 5 µM
COc1ccc2c(c1)CC[C@@]21C(=O)N(C)C(=N)N[C@]1(C)c1cc(-c2cccc(C#N)c2)cs1,Ki,read-out: BACE-1 Ki,< 5 µM
CN1C(=N)N[C@](C)(c2nc(-c3cccc(C#N)c3)cs2)CC1=O,Ki,read-out: BACE-1 Ki,< 5 µM
CCC1(c2cc(-c3cccnc3)cs2)CC(=O)N(C)C(=N)N1 (stereo not shown),Ki,read-out: BACE-1 Ki,< 5 µM
CCCS(=O)(=O)Nc1cccc(CN2C(=N)NC(c3ccccc3)(c3ccccc3)C2=O)c1,Ki,read-out: BACE-1 Ki,< 5 µM
CC1(c2cccc(-c3cccc(Cl)c3)c2)NC(=N)N(CC2CCN(C(=O)c3ccccc3)C2)C1=O (stereo not shown),Ki,read-out: BACE-1 Ki,< 5 µM
CCOc1cc(F)cc(-c2csc([C@]3(C)CC(=O)N(C)C(=N)N3)c2)c1,Ki,read-out: BACE-1 Ki,< 5 µM
CC1(c2cccc(-c3cccc(Cl)c3)c2)NC(=N)N(CC2CCN(S(C)(=O)=O)C2)C1=O (stereo not shown),Ki,read-out: BACE-1 Ki,< 5 µM
CCCC(=O)N1CCC[C@H](CN2C(=N)NC(c3ccccc3)(c3ccccc3)C2=O)C1,Ki,read-out: BACE-1 Ki,< 5 µM
CN1C(=N)N[C@](C)(c2cc(-c3cc(C#N)cc(C#N)c3)cs2)CC1=O,Ki,read-out: BACE-1 Ki,< 5 µM
CN1C(=N)N[C@](C)(c2csc3c(-c4ccsc4)cccc23)CC1=O,Ki,read-out: BACE-1 Ki,< 5 µM
CN1C(=N)N[C@](C)(c2cc(-c3cccc(C#N)c3)c(Br)s2)CC1=O,Ki,read-out: BACE-1 Ki,< 5 µM
CN1C(=N)NC(C)(c2cc(-c3cccc(C#N)c3)cs2)C(CC#N)C1=O (mixture of isomers),Ki,read-out: BACE-1 Ki,< 5 µM
CC1(c2cccc(-c3cccc(Cl)c3)c2)NC(=N)N(CC2CCN(C(=O)CC3CCCCC3)C2)C1=O (stereo not shown),Ki,read-out: BACE-1 Ki,< 5 µM
CN1C(=N)N[C@](C)(c2cc(-c3cc(F)cc(C#N)c3)nn2C)CC1=O,Ki,read-out: BACE-1 Ki,< 5 µM
CN1C(=N)NC(c2ccccc2)(c2cccc(NS(C)(=O)=O)c2)C1=O (racemic),Ki,read-out: BACE-1 Ki,< 5 µM
"CN1C(=N)NC(C)(c2cccc(-c3cc(Cl)ccc3CNC(=O)Cc3ccccc3)c2)C1=O (stereo not shown) [benzeneacetamide, N-[[5-chloro-3′-(2-imino-1,4-dimethyl-5-oxo-4-imidazolidinyl)[1,1′-biphenyl]-2-yl]methyl]-]",Ki,read-out: BACE-1 Ki,< 5 µM
CCN(CCc1cccc(C2(c3ccccc3)NC(=N)N(C)C2=O)c1)C(C)=O (racemic),Ki,read-out: BACE-1 Ki,< 5 µM
CN1C(=N)N[C@](C)(c2cc(-c3cc(C#N)cc(C#N)c3)nn2C)CC1=O,Ki,read-out: BACE-1 Ki,< 5 µM
COc1cc(-c2cccc([C@@]3(C4CC4)NC(=N)N(C)C3=O)c2)ccc1O,Ki,read-out: BACE-1 Ki,< 5 µM
CN1C(=N)N[C@](C)(c2cnc(-c3cccc(C#N)c3)s2)CC1=O,Ki,read-out: BACE-1 Ki,< 5 µM
COCC1CCCN1C(=O)c1cncc(CN2C(=N)NC(c3cccc(Br)c3)(C3CC3)C2=O)c1 (stereo not shown),Ki,read-out: BACE-1 Ki,< 5 µM
CN1C(=N)N[C@](C)(c2ncc(-c3cc(F)cc(C#N)c3)s2)CC1=O,Ki,read-out: BACE-1 Ki,< 5 µM
Cc1c(-c2cccc(OC(F)(F)F)c2)csc1[C@]1(C)CC(=O)N(C)C(=N)N1,Ki,read-out: BACE-1 Ki,< 5 µM
COc1cncc(-c2csc(C3(C4CC4)NC(=N)N(C)C3=O)c2)c1 (stereo not shown),Ki,read-out: BACE-1 Ki,< 5 µM
CN1C(=N)N[C@](CCC2CCCCC2)(C[C@H]2CCC[C@@H](NCCc3ccccc3)C2)C1=O,Ki,read-out: BACE-1 Ki,< 5 µM
CCCN(CCC)C(=O)CCCCN1C(=N)NC(c2ccccc2)(c2ccccc2)C1=O,Ki,read-out: BACE-1 Ki,< 5 µM
CC(=O)N1CCC(CN2C(=N)NC(C)(c3cccc(-c4cccc(O)c4)c3)C2=O)CC1 (stereo not shown),Ki,,< 5 µM
CN1C(=N)NC(c2ccc(-c3ccc(F)c(C#N)c3)s2)(C2CC2)CC1=O (stereo not shown),Ki,read-out: BACE-1 Ki,< 5 µM
CCC[C@H]1C(=O)N(C)C(=N)N[C@]1(C)c1cc(-c2cccc(C#N)c2)cs1,Ki,read-out: BACE-1 Ki,< 5 µM
